What was measured:
full-length WT STING = target: T1, full-length WT STING (Homo sapiens, UniProt Q86WV6, H232R); test: 3H-cGAMP filtration binding assay (WT STING); conditions: competition with tritiated cGAMP, WT STING membrane
T1 construct: AviTag (after gg linker) (C); HRV3C cleavage site (after gs linker) (C); HIS8 (C); made in house; host or cells: Trichoplusia ni (Hi-Five) insect cells infected with baculovirus (virus generated and amplified in Sf21 cells); used as a washed membrane preparation
Method: (§1) The ability of compounds to bind STING is quantified by their ability to compete with tritiated cGAMP ligand for human STING receptor membrane using a radioactive filter-binding assay. The binding assay employs STING receptor obtained from Trichoplusia ni cell membranes (T. ni; Expression Systems, cat #94-002F, www.expressionsystems.com) overexpressing full-length WT STING and tritiated cGAMP ligand.
The basic WT STING filtration assay protocol is as follows:
16 nM of [^3H] c-GAMP ligand was prepared by diluting into assay buffer, and 50 uL of this working stock was manually added to each well of the assay plate. After ligand addition, 2 uL of either titrated test compound, DMSO control (Sigma #276855), or cold cGAMP control was added to the appropriate wells using a BIOMEK FX. The serially titrated compound was prepared on a Hamilton STARPlus CORE in a 96-well plate (Greiner, #651201) using a 1:3 ten-point dose response format. Following compound addition, a 2.2 ug/ml working concentration of STING membrane (SEQ. ID. No. 3) was prepared by diluting concentrated membrane into assay buffer (1×PBS; Invitrogen # SH30028.02) and douncing 7× using a manual tissue homogenizer (Wheaton, #357546). 148 uL of this prepared membrane was then manually added to each well of a 96-well deep-well polypropylene plate (Fisher Scientific, #12-566-121). Compound, ligand, and membrane then incubated for 60 min at RT before the contents of each assay plate were filtered through a 96-well GF/B filter plate (PerkinElmer, #6005250) using a TOMTEC MACH III Cell Harvester equipped with 20 mM HEPES buffer (Fisher Scientific, # BP299500). The filter plates were then dried at 55° C. for 30 min using a pressurized VWR oven before 30 uL of ULTIMA GOLD F scintillate was added to each well. Tritium levels for each reaction well were then measured using a PerkinElmer TopCount plate reader.
(§2) After normalization to controls, the percent activity for each compound concentration was calculated by measuring the amount of remaining radioactivity. The plot of percent activity versus the log of compound concentration was fit with a 4-parameter dose response equation to calculate EC50 values.

full-length HAQ STING = target: T2, full-length HAQ STING (Homo sapiens, UniProt Q86WV6, G230A/H232R/R293Q/R71H); test: 3H-cGAMP filtration binding assay (HAQ STING); conditions: competition with tritiated cGAMP, HAQ STING membrane
T2 construct: AviTag (after GG linker) (C); HRV3C cleavage site (after GS linker) (C); HIS8 (C); made in house; host or cells: Trichoplusia ni (Hi-Five) insect cells infected with baculovirus (virus generated and amplified in Sf21 cells); used as a washed membrane preparation
Text: The ability of compounds to bind STING is quantified by the ability to compete with tritiated cGAMP ligand for human STING receptor membrane using a radioactive filter-binding assay. The binding assay employs STING receptor obtained from Hi-Five cell membranes overexpressing full-length HAQ STING prepared in-house and tritiated cGAMP ligand also purified in-house.
as §1, with “HAQ” for “WT”
The basic HAQ STING filtration assay protocol is as follows:
The compounds were serially titrated by the Hamilton STARPlus CORE in a 96-well plate (Greiner, #651201) using a 1:3 ten-point dose response format. After compound preparation, a 2.2 ug/ml working concentration of STING membrane (SEQ. ID. No. 1) was prepared by diluting concentrated membrane into assay buffer (1×PBS; Invitrogen # SH30028.02) and douncing 7× using a manual tissue homogenizer (Wheaton, #357546). 148 uL of prepared membrane was then manually added to each well of a 96-well deep-well polypropylene plate (Fisher Scientific, #12-566-121). Following membrane addition, 2 uL of either titrated test compound, DMSO control (Sigma #276855), or cold cGAMP control was added to the appropriate wells using a BIOMEK FX. Compound and membrane then preincubated for 60 min at RT to allow compound binding to equilibrate. Following equilibration, 8 nM of [^3H]c-GAMP ligand was prepared by diluting into assay buffer, and 50 uL of this working stock was then manually added to each well of the assay plate. Plates were then incubated at RT for 60 min, and the contents of each assay plate were then filtered through a 96-well GF/B filter plate (PerkinElmer, #6005250) using a TOMTEC MACH III Cell Harvester equipped with 20 mM HEPES buffer (Fisher Scientific, # BP299500). The filter plates were then dried at 55° C. for 30 min using a pressurized oven before 30 uL of ULTIMA GOLD F scintillate was added to each well. Tritium levels for each reaction well were then measured using a PerkinElmer TopCount plate reader.
as §2

[1] = test system: secretion of interferon-beta from THP1 cells; test: IFN-β secretion in THP1 cell culture (5 h); assay type: cell-based; conditions: Homo sapiens, THP-1, 5 h, compound at 30 μM, 30 uM cGAMP = 100%, read-out: % Effect at 30 μM relative to 2′3′-cGAMP
Method: The ability of compounds to stimulate the secretion of interferon-beta from THP1 cells was measured using a human IFN-β AlphaLISA kit (Perkin Elmer, Cat. No. AL265F). The basic protocol is as follows:
A Labcyte Echo 550 acoustic dispenser was used to transfer 120 nL of compound dissolved in DMSO into the wells of an empty, sterile 384-well microplate, (Corning, Cat. No. 3712). THP1 cells (American Type Culture Collection, Cat. No. TIB202) previously frozen in Recovery Medium (Life Technologies, Cat. No. 12648-010) were thawed and immediately diluted 10-fold into 37° C. assay medium (RPMI 1640+L-Glutamine & phenol red, Life Technologies, Cat. No. 11875-085; 0.5% heat inactivated fetal bovine serum, Sigma Aldrich, Cat. No. F4135; 1 mM Sodium Pyruvate, Life Technologies, Cat. No. 11360-070; 1× non-essential amino acids; Life Technologies, Cat. No. 11140-050). The cell viability and count was ascertained using a Beckman Coulter V-Cell XR cell counter. The cells suspension was centrifuged at 200×g for 5 min at RT. Cells were resuspended to a density of 0.8×10^6/mL in 37° C. assay medium. Subsequent liquid transfers were performed using either a Matrix electronic multichannel pipette or an Agilent Bravo Automated Liquid Handling Platform.
The assay was started by dispensing 40 μL of the previously prepared cell suspension into the wells of the plate containing compounds. After 5 h incubation at 37° C., 5% CO2 in a humidified atmosphere, the plate of cells and compounds was centrifuged at 200×g for 5 min at RT. From each well, 5 μL of supernatant was transferred into corresponding wells of a white 384-well plate (Perkin Elmer, Cat. No. 6005620). To these supernatant-containing wells was added 10 μL of 5× Anti-Analyte Acceptor beads (50 μg/mL of AlphaLISA HiBlock Buffer) and incubated for 30 min at RT while shaking on an orbital plate shaker. To each well was added 10 μL of 5× Biotinylated Antibody Anti-analyte (5 nM in AlphaLISA HiBlock Buffer) and incubated on an orbital plate shaker for 60 min at RT or overnight at 4° C. To each well was added 25 μL of 2× SA-Donor beads (80 μg/mL in AlphaLISA HiBlock Buffer) and incubated for 30-45 min at RT in the dark while shaking on an orbital plate shaker. The plate was then read on a Perkin Elmer Envision (λex=680 nm, […]). The percent effect of the AlphaLISA signal at each compound concentration was calculated based on 30 uM cGAMP positive controls and 0.3% DMSO negative controls. The plot of percent effect versus the log of compound concentration was fit with a 4-parameter concentration response equation to calculate EC50 values. The test compounds were tested at concentrations 30000, 10000, 3333, 1111, 370.4, 123.4, 41.2, 13.7, 4.6, and 1.5 nM with 0.3% residual DMSO. The control compound, cGAMP was tested at concentrations 100000, 33333, 11111, 3704, 1235, 412, 137, 46, and 15 nM with 0.3% residual DMSO.
Compounds of the disclosure were evaluated for IFN-β secretion in THP1 cell culture as described above. The following table tabulates the biological data for these compounds as percent activation relative to 2′3′-cGAMP at the 30 µM concentration.

T1 sequence (Q86WV6 with tags, fused parts or gaps H232R): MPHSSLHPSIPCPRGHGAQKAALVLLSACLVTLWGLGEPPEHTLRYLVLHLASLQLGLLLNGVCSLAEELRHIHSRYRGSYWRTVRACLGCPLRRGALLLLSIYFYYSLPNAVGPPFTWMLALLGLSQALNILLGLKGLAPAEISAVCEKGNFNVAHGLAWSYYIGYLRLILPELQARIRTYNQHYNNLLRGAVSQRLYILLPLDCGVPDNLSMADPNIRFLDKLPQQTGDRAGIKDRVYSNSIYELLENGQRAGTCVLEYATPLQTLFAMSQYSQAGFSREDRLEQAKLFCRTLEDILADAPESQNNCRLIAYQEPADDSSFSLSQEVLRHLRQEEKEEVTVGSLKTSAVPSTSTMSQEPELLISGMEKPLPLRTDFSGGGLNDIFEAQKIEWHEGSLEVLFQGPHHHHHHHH
T2 sequence (Q86WV6 with tags, fused parts or gaps R71H/G230A/H232R/R293Q): as the sequence (Q86WV6 with tags, fused parts or gaps H232R) above, with R71H, G230A, R293Q counted along it

| EC50 (full-length WT STING) | EC50 (full-length HAQ STING) | SMILES | activation at 30 µM [1] |
| --- | --- | --- | --- |
| 9 nM | 2 nM | COc1cc2sc(C(=O)C[C@H](C)C(=O)O)cc2nc1OCCOc1c(OC)cc2sc(C(=O)C[C@H](C)C(=O)O)cc2c1F (racemic) [Example 19, rac-(R)-4-(5-(2-((2-((R)-3-carboxybutanoyl)-4-fluoro-6-methoxybenzo[b]thiophen-5-yl)oxy)ethoxy)-6-methoxythieno[3,2-b]pyridin-2-yl)-2-methyl-4-oxobutanoic acid] | 30% |
| 1 nM | 1 nM | COc1cc2sc(C(=O)C[C@H](C)C(=O)O)cc2nc1OCCCOc1c(OC)cc2sc(C(=O)C[C@H](C)C(=O)O)cc2c1F (racemic) [Example 22, rac-(R)-4-(5-(3-((2-((R)-3-carboxybutanoyl)-4-fluoro-6-methoxybenzo[b]thiophen-5-yl)oxy)propoxy)-6-methoxythieno[3,2-b]pyridin-2-yl)-2-methyl-4-oxobutanoic acid] | 48% |
| 398 nM | 92 nM | COc1cc2sc(C(=O)C[C@H](C)C(=O)O)cc2cc1OCCOc1cc2sc(C(=O)C[C@H](C)C(=O)O)cc2cc1OC (racemic) [Example 57, rac-(R)-4-(5-(2-((2-((R)-3-carboxybutanoyl)-5-methoxybenzo[b]thiophen-6-yl)oxy)ethoxy)-6-methoxybenzo[b]thiophen-2-yl)-2-methyl-4-oxobutanoic acid] | 15% |
| – | 1 nM | COc1cc2sc(C(=O)C[C@H](C)C(=O)O)cc2c(F)c1OCCCOc1c(OC)cc2sc(C(=O)[C@@H]3CC[C@H]3C(=O)O)cc2c1F [Example 98, trans-2-(5-(3-((2-((S)-3-carboxybutanoyl)-4-fluoro-6-methoxybenzo[b]thiophen-5-yl)oxy)propoxy)-4-fluoro-6-methoxybenzo[b]thiophene-2-carbonyl)cyclobutane carboxylic acid] | 92% |
| – | 1 nM | COc1cc2sc(C(=O)C[C@H](C)C(=O)O)cc2c(F)c1OCCCOc1c(OC)cc2sc(C(=O)[C@@H]3CC[C@H]3C(=O)O)cc2c1F [Example 99, trans-2-(5-(3-((2-((S)-3-carboxybutanoyl)-4-fluoro-6-methoxybenzo[b]thiophen-5-yl)oxy)propoxy)-4-fluoro-6-methoxybenzo[b]thiophene-2-carbonyl)cyclobutane carboxylic acid] | – |

Further lines, the molecule ahead of its results:

| SMILES | EC50 (full-length WT STING) | EC50 (full-length HAQ STING) | activation at 30 µM [1] |
| --- | --- | --- | --- |
| COc1cc2sc(C(=O)C[C@H](C)C(=O)O)cc2cc1OCCCOc1cc2cc(C(=O)[C@H]3C[C@@H]3C(=O)O)sc2cc1OC (racemic) [Example 68, rac-(1R,2R)-2-(5-(3-((2-((R)-3-carboxybutanoyl)-6-methoxybenzo[b]thiophen-5-yl)oxy)propoxy)-6-methoxybenzo[b]thiophene-2-carbonyl)cyclopropane-1-carboxylic acid] | 443 nM | 50 nM | 24% |
| COc1cc2sc(C(=O)CCC(=O)O)cc2cc1CCCOc1c(OC)cc2sc(C(=O)[C@@H]3C[C@H]3C(=O)O)cc2c1F (relative stereo) [Example 85, trans-2-(5-(3-(2-(3-carboxypropanoyl)-6-methoxybenzo[b]thiophen-5-yl)propoxy)-4-fluoro-6-methoxybenzo[b]thiophene-2-carbonyl)cyclopropane carboxylic acid] | 9010 nM | 360 nM | 145% |
| COc1cc2sc(C(=O)CCC(=O)O)cc2c(F)c1OCCCOc1c(OC)cc2sc(C(=O)[C@@H]3C[C@H]3C(=O)O)cc2c1F (relative stereo) [Example 88, trans-2-(5-(3-((2-(3-carboxypropanoyl)-4-fluoro-6-methoxybenzo[b]thiophen-5-yl)oxy)propoxy)-4-fluoro-6-methoxybenzo[b]thiophene-2-carbonyl)cyclopropane carboxylic acid] | 109 nM | 3 nM | 152% |
| COc1cc2sc(C(=O)C[C@H](C)C(=O)O)cc2c(F)c1OCCCOc1cc2sc(C(=O)[C@@H]3CC[C@H]3C(=O)O)cc2c(F)c1OC (single isomer, unassigned) [Example 97] | 69 nM | 20 nM | – |

From patent US10793557B2, “Sting agonist compounds” (Merck Sharp & Dohme Corp., priority 2018, dated 2020)
